Counter-ions that a name gives are not always drawn.
Legend:
[1] = background statement on known inducers; cited from earlier work
[2] = tested on: vesicular stomatitis virus (VSV) in human embryonic lung cells; format: cell-based; conditions: human serum, 75 mg/kg oral
[3] = tested on: vesicular stomatitis virus (VSV) in L-1D cells; format: cell-based
[4] = tested on: Ehrlich ascites tumor cells; experiment: Anti-tumor activity of peritoneal exudate cells from Ge treated mice on Ehrlich ascites tumor bearing mice; format: in vivo, DDI mice; conditions: peritoneal exudate cells from mice given 300 mg/kg Ge, six days i.p. (FIG. 3)
Procedure: An anti-tumor activity test of peritoneal exudate cells obtained from mice treated with Ge in a dosage amount of 300 mg/kg was conducted on Ehrlich ascites tumor bearing mice.
1×10^5 cells/mouse of Ehrlich ascites tumor cells were transplanted into the peritoneal cavity of DDI mice. Twenty-four hours later, these mice were intraperitoneally supplied with 5×10^3 peritoneal exudate cells obtained from mice treated with Ge once daily for six consecutive days. Peritoneal exudate cells obtained from saline injected mice were likewise supplied to tumor bearing mice as a control.

FM-3A cells = experiment: Growth inhibition of FM-3A tumor cells co-cultured with macrophages from Ge treated mice; format: cell-based; conditions: 48 hours
Procedure: It is known that interferon has the ability to convert a standing macrophage into a tumoricidal macrophage, deemed activated macrophage (A-M.phi.), either in vivo or in vitro. Since the Ge induced the formation of immune interferon in vivo, it was expected that A-M: would be induced in the Ge treated animal.
Peritoneal exudate cells obtained from mice 72 hours after treatment with a 300 mg/kg dose of Ge were cultured for 20 minutes in a petri dish utilizing RPMI-1640 medium supplemented with 10% fetal calf serum. Cells adhering to the petri dish, obtained by washing with the same culture medium, were separately co-cultured with FM-3A cells as the target tumor cells, in a ratio of 10:1. FM-3A cells were cultured singly, or with macrophages derived from normal mice, as the control. In each run, the growth of FM-3A cells was monitored. A determination of the number of FM-3A cells was carried out per the dye exclusion test using Trypan-Blue. […] Thus, it is apparent that Ge induces the formation of A-M: in live mice.

[5] = tested on: vesicular stomatitis virus (VSV) in L-1D cells; format: cell-based; remark: listed apart in the source
MEP-II tumor cells = experiment: Anti-tumor effect of oral Ge in MEP-II tumor bearing mice; format: in vivo, DDI mice; conditions: 100 and 300 mg/kg oral, once daily, seven days
Procedure: 4×10^3 MEP-II tumor cells were transplanted intraperitoneally in DDI mice as described above. Twenty-four hours later, Ge was orally administered, once daily for seven consecutive days at a daily dosage of 100 or 300 mg/kg to ascertain any anti-tumor effect. In a control group, 0.2 ml of physiological saline solution was orally administered, also once daily for seven days.

interferon = experiment: Interferon induction in healthy volunteers; format: in vivo; conditions: human
Procedure: Capsules of Ge were orally administered to eight healthy volunteers, 21 to 23 years old. The dose administered to one group (two men and two women) was 75 mg/kg and that administrated to the other group (two men and two women) was 25 mg/kg. Serum samples were collected at predetermined intervals, the interferon titers were determined, and the results reflected in FIGS. 4 and 5 were obtained. […] The reported results thus evidence that Ge induces A-M.phi. in humans as well as in mice.

rats = experiment: Chronic toxicity test in rats, oral, six months; conditions: six months, 30, 300 or 3000 mg/kg per day
dogs = experiment: Chronic toxicity in dogs, intravenous, six months; conditions: 500 mg/kg per day
[6] = Acute toxicity (LD50) in rats; conditions: rat, in vivo
[7] = Acute toxicity (LD50) in mice; conditions: mouse, in vivo
[8] = intravenous injection, larger than any physically practicable maximum amount

CCCCCCCCCCCCCCCCCCN(CCCCCCCCCCCCCCCCCC)CCCN(CCO)CCO [CP-20961]
adverse side effects [1]: one or more adverse side effects

O=C(O)C[CH2][Ge](=[O])[O][Ge](=[O])[CH2]CC(=O)O [Ge]
antiviral activity of induced agent, human cells (in words) [2]: displayed antiviral activity only in human cells | viral infection inhibitory activity in serum ([3]; mice, 300 mg/kg oral, 25 hours after administration (FIG. 1)): viral infection inhibitory activity was detected | dose dependency of viral infection inhibitory activity ([3]; mice, oral, varied doses (FIG. 2)): dose dependent | species specificity of induced viral infection inhibitory factor ([3]; mouse and human sera compared on L-1D, human embryonic lung and chicken embryonic cells): species specific | antiviral activity of induced agent, L-1D cells (in words) ([3]; mouse serum, 300 mg/kg oral): displayed resistance to viral infection only in the L-1D cells | anti-tumor activity of macrophage activated by Ge treatment (in words) [4]: marked anti-tumor activity | growth of FM-3A cells (in words) (FM-3A cells): prominently inhibited | stability of induced factor to heat and acid (in words) ([5]; mouse serum, 56° C. one hour, acidification to pH 2.0): unstable to thermal treatment at 56 °C for one hour and also to acidification to pH 2.0 | trypsin lability of induced factor (in words) ([5]; mouse serum, trypsin 37° C., 3 hours): trypsin labile | type of interferon induced ([5]; mouse serum, from thermal and acid treatments): immune (type II) interferon | anti-tumor activity (in words) (MEP-II tumor cells): both dosage amounts of Ge exhibited anti-tumor activity | production of interferon (interferon; 25 mg/kg oral capsules (FIGS. 4 and 5)): production of interferon was observed, although the level was lower | production of interferon (interferon; 75 mg/kg oral capsules (FIGS. 4 and 5)): significant production of interferon was observed in each case

O=C(O)C[CH2][Ge](=[O])[O][Ge](=[O])[CH2]CC(=O)O [carboxyethyl germanium sesquioxide]
death in chronic toxicity test (rats): no rat died | pathological disorder in chronic toxicity test (rats): no pathological disorder was observed | toxicity (dogs): no toxicity was found | LD50 [6, 8]: > 1000 mg/kg | LD50 ([6]; oral): > 10000 mg/kg | LD50 [7, 8]: > 1000 mg/kg | LD50 ([7]; oral): > 6300 mg/kg

CCN(CC)CCOc1ccc2c(c1)C(=O)c1cc(OCCN(CC)CC)ccc1-2 [tilorone hydrochloride]
adverse side effects [1]: one or more adverse side effects

double-stranded complex polyriboinosinic acid and polyribocytidylic acid [Poly 1-C, reference compound]
Interferon Titer ([5]; pH 2): 640 | Remaining amount of titer ([5]; pH 2): 100%

— patent publication US4473581A (priority 1979, dated 1984)
